{
  "source": "patent US12269816B2",
  "about": "“Benzothiophene compound, preparation method therefor and use thereof” (SICHUAN KELUN-BIOTECH BIOPHARMACEUTICAL CO., LTD., priority 2019, dated 2025)",
  "key": {"[1]": {"tested_on": "STING pathway cytokine mIFN-β in mouse Raw264.7 cells", "test": "ELISA of STING pathway cytokine mIFN-β expression in mouse Raw264.7 cells", "type": "cell-based", "conditions": "for Emax: highest expression of mIFN-β; for Emax / EC50: 6 h, ELISA; for EC50: mIFN-β expression; for agonistic effect on the expression of mIFN-β: result in words", "excerpt": "In this experiment, the expression of STING signal pathway cytokine mIFN-β was detected in Raw264.7 cells (Nanjing Cobioer) by the ELISA method, so as to evaluate the agonistic effect of the compound to be tested on the expression of STING pathway cytokine mIFN-β at the cellular level.\nRaw264.7 cells (Nanjing Cobioer) in the logarithmic phase were centrifuged, and resuspended in a cell culture solution to a density of 1.6×10^6 cells/ml. The cell suspension was inoculated into a 24-well cell culture plate (Corning) at 250 μL/well. The mother liquor of the compound to be tested was gradiently diluted with a cell culture solution to obtain a 2× working concentration diluted solution (control compound 1 was diluted at a 3-fold gradient: 200, 66.67, 22.22, 7.41, 2.47, 0.82, 0.27 and 0 μM; control compound 2 was diluted at a 2-fold gradient: 200, 100, 50, 25, 12.5, 6.25, 3.125 and 0 μM; and compounds 4, 6 and 8 were diluted at a 4-fold gradient: 200, 50, 12.5, 3.13, 0.78, 0.20, 0.049 and 0 μM). The 2× working concentration diluted solution of the compound was added into a 24-well plate (250 μl of the culture solution containing 2% DMSO was added into the negative control well) at 250 μL/well. The culture plate was then placed in a cell incubator, and incubated for 6 h. After the cell incubation, the supernatant was collected by centrifugation at 300 g×5 min, and the mIFN-β content (pg/ml) in the cell culture supernatant was detected according to the operating instructions of the VeriKinem Mouse IFN Beta ELISA Kit from PBL (obtained by conversion of the OD450 nm absorbance-mIFN-β standard concentration standard curve and the OD450 nm absorbance value read by the microplate reader). EC50 was calculated through log(agonist) vs. response—Variable slope fitting by the Graphpad Prism software, and the experimental results are shown in Table 3.\nIn the table, EC50 refers to the concentration of a compound when the expression of mIFN-β generated by stimulation of the compound reaches half of Emax; and Emax refers to the highest expression of mIFN-β generated by stimulation of the compound."}, "[2]": {"tested_on": "STING-mediated interferon (IFN) signal reporter gene in THP1-Blue™ ISG cells", "test": "STING-mediated interferon (IFN) signal SEAP reporter gene assay in THP1-Blue ISG cells", "type": "cell-based, human", "conditions": "for EC50: Homo sapiens, 16 h incubation, SEAP reporter read at OD620nm; for Emax (OD620nm): highest OD620nm value generated by stimulation of the compound, 16 h; for agonistic effect on the STING-mediated Interferon (IFN) signal pathway: result in words", "excerpt": "In this experiment, the activity of the SEAP (secreted embryonic alkaline phosphatase) reporter gene regulated by the IFN regulatory factor (interferon regulatory factor) was detected in the THP1-Blue™ ISG cells (InvivoGen) to evaluate the agonistic effect of the compounds to be tested on the STING-mediated IFN signal pathway at the cellular level.\nThe THP1-Blue™ ISG cells (InvivoGen) in the logarithmic phase were centrifuged, and resuspended in a cell culture solution to a density of 2×10^6 cells/ml. The cell suspension was inoculated in a 96-well cell culture plate (Corning) at 50 μL/well. The mother liquor of the compound to be tested was gradiently diluted with a cell culture solution to obtain a 2× working concentration diluted solution (control compounds 1 and 2 were diluted at a 3-fold gradient: 200, 66.67, 22.22, 7.41, 2.47, 0.82, 0.27 and 0 μM; compounds 1, 2, 4, 6, 8, and 23 were diluted at a 8-fold gradient: 60, 7.5, 0.94, 0.12, 0.015, 0.0018, 0.00023 and 0 μM; and compounds 3 and 5 were diluted at a 10-fold gradient: 10, 1, 0.1, 0.01, 0.001, 0.0001, 0.00001 and 0 μM). The 2× working concentration diluted solution of the compound was added into a 96-well plate (50 μl of the culture solution containing 2% DMSO was added into the negative control well) at 50 μL/well. The culture plate was then placed in a cell incubator, and incubated for 16 h. After the cell incubation, 10 μL of the cell culture supernatant was transferred to a 96-well plate, and a QUANTI-Blue (InvivoGen) solution was added at 90 μL/well. The cells were incubated at 37° C. for 3 h. The absorbance at 620 nm (OD620nm) was read with a microplate reader.\nIn the table, EC50 refers to the concentration of a compound when ODM620nm value generated by stimulation of the compound reaches half of Emax; and Emax refers to the highest OD620nm value generated by stimulation of the compound."}, "[3]": {"tested_on": "STING and its downstream proteins TBK1 and IRF3 in THP-1 cells", "test": "Western blotting of phosphorylation of STING signal pathway proteins in human THP-1 cells", "type": "cell-based", "conditions": "3 hours, protein blotting, FIGS. 1-5, result in words", "excerpt": "In this experiment, the changes in the phosphorylation levels of STING and its downstream proteins TBK1 (TANK-binding kinase 1) and IRF3 (interferon regulatory factor 3) were detected by protein blotting to evaluate the agonistic effect of the test compounds on the STING signal pathway at the cellular level.\nThe THP-1 cells in the logarithmic phase were centrifuged, and resuspended in a cell culture solution to a density of […]. The cell suspension was inoculated into a 12-well cell culture plate (Corning) at 0.5 mL/well. The compound to be tested was diluted with a cell culture solution to 2× working solution concentration (control compounds 1 and 2: 60 μM; compounds 1 and 3: 0.6 μM, 6 μM, and 60 μM; compounds 2, 4, 6 and 8: 6 μM, 20 μM, and 60 μM). 0.5 mL of the diluted solution of the compound was added into a 12-well plate (500 μl of the culture solution containing 2% DMSO was added into the negative control well), and the plate was incubated in a cell incubator for 3 hours. After the incubation, the cells were collected by centrifugation, lysed with 60 μL cell lysis buffer (CST) for 30 minutes, and centrifuged at 12,000 rpm for 15 minutes. The supernatant was collected to determine the protein concentration, and then an appropriate amount of 5× protein loading buffer was added. The mixture was heated at 95° C. for 10 minutes to prepare a protein electrophoresis sample. Finally protein blotting was performed to detect the phosphorylation level of the corresponding protein. The primary antibodies used in the protein blotting were purchased from CST: STING (D2P2F) rabbit mAb, Phospho-STING (Ser366) rabbit mAb, Phospho-IRF3 (Ser396) (D601M) rabbit mAb, IRF3 (D83B9) rabbit mAb, TBK1/NAK (D1B4) rabbit mAb, Phospho-TBK1/NAK (Ser172) (D52C2) XP® rabbit mAb, and GAPDH (D16H11) rabbit mAb; and the secondary antibody horseradish peroxidase-conjugated goat anti-rabbit IgG (H+L) was purchased from Zsgb-bio."}},
  "data": [
    {"molecule": "COc1cc2sc(C(=O)CCC(=O)O)cc2cc1OCCCOc1cc2cc(C(=O)N(C)CCC(=O)O)sc2cc1OC", "note": "[Compound 8, 4-(5-(3-((2-((2-carboxyethyl)(methyl)carbamoyl)-6-methoxybenzo[b]thiophen-5-yl)oxy)propoxy)-6-methoxybenzo[b]thiophen-2-yl)-4-oxobutanoic Acid]", "values": [
      {"measurement": "Emax", "setting": "[1]", "result": 1176.75, "unit": "pg/mL"},
      {"measurement": "EC50", "setting": "[1]", "result": 560, "unit": "nM"},
      {"measurement": "agonistic effect on the expression of mIFN-β", "setting": "[1]", "result": "strong agonistic effect"},
      {"measurement": "EC50", "setting": "[2]", "result": 55.3, "unit": "nM"},
      {"measurement": "Emax (OD620nm)", "setting": "[2]", "result": 1.73, "unit": "OD620nm"},
      {"measurement": "agonistic effect on the STING-mediated Interferon (IFN) signal pathway", "setting": "[2]", "result": "strong agonistic effects"},
      {"measurement": "agonistic effect on the phosphorylation levels of STING, TBK1 and IRF3", "setting": "[3]", "result": "strong agonistic effects"}
    ]},
    {"molecule": "COc1cc2sc(C(=O)N(C)CCC(=O)O)cc2cc1OCCCOc1cc2sc(C(=O)CCC(=O)O)cc2cc1OC", "note": "[Compound 4, 4-(6-(3-((2-((2-carboxyethyl)(methyl)carbamoyl)-6-methoxybenzo[b]thiophen-5-yl)oxy)propoxy)-5-methoxybenzo[b]thiophen-2-yl)-4-oxobutanoic acid]", "values": [
      {"measurement": "Emax", "setting": "[1]", "result": 1082.21, "unit": "pg/mL"},
      {"measurement": "EC50", "setting": "[1]", "result": 3600, "unit": "nM"},
      {"measurement": "agonistic effect on the expression of mIFN-β", "setting": "[1]", "result": "strong agonistic effect"},
      {"measurement": "EC50", "setting": "[2]", "result": 35.5, "unit": "nM"},
      {"measurement": "Emax (OD620nm)", "setting": "[2]", "result": 1.97, "unit": "OD620nm"},
      {"measurement": "agonistic effect on the STING-mediated Interferon (IFN) signal pathway", "setting": "[2]", "result": "strong agonistic effects"},
      {"measurement": "agonistic effect on the phosphorylation levels of STING, TBK1 and IRF3", "setting": "[3]", "result": "strong agonistic effects"}
    ]},
    {"molecule": "COc1cc2sc(C(=O)CCC(=O)O)cc2cc1OCCCOc1cc2sc(C(=O)N(C)CCC(=O)O)cc2cc1OC", "note": "[Compound 6, 4-(5-(3-((2-((2-carboxyethyl)(methyl)carbamoyl)-5-methoxybenzo[b]thiophen-6-yl)oxy)propoxy)-6-methoxybenzo[b]thiophen-2-yl)-4-oxobutanoic acid]", "values": [
      {"measurement": "Emax", "setting": "[1]", "result": 1012.51, "unit": "pg/mL"},
      {"measurement": "EC50", "setting": "[1]", "result": 3800, "unit": "nM"},
      {"measurement": "agonistic effect on the expression of mIFN-β", "setting": "[1]", "result": "strong agonistic effect"},
      {"measurement": "EC50", "setting": "[2]", "result": 74.5, "unit": "nM"},
      {"measurement": "Emax (OD620nm)", "setting": "[2]", "result": 1.88, "unit": "OD620nm"},
      {"measurement": "agonistic effect on the STING-mediated Interferon (IFN) signal pathway", "setting": "[2]", "result": "strong agonistic effects"},
      {"measurement": "agonistic effect on the phosphorylation levels of STING, TBK1 and IRF3", "setting": "[3]", "result": "strong agonistic effects"}
    ]}
  ]
}
